Tested on: A549
Assay: Antiproliferative activity against human A549 cells by SRB assay
Type: functional, cell-based
Settings: read-out: IC50

Compound | IC50
COc1ccc(C2=NN(S(=O)(=O)c3ccccc3)C(c3ccc(OC)cc3)=NN2S(=O)(=O)c2ccccc2)cc1 | 58.8 µM
O=C(OCCCl)N1N=C(c2ccccc2)NN=C1c1ccccc1 | 101 µM
CC(C)C(=O)N1N=C(c2ccc(C(F)(F)F)cc2)NN=C1c1ccc(C(F)(F)F)cc1 | 31.6 µM
O=C(Oc1ccccc1)N1C(c2ccc(C(F)(F)F)cc2)=NN=C(c2ccc(C(F)(F)F)cc2)N1C(=O)Oc1ccccc1 | 14.5 µM
Clc1ccc(C2=NN=C(c3ccc(Cl)cc3)NN2)cc1 | 51.8 µM
O=C(CCl)N1N=C(c2ccccc2)NN=C1c1ccccc1 | 1.85 µM
O=S(=O)(c1ccccc1)N1N=C(c2ccccc2)N(S(=O)(=O)c2ccccc2)N=C1c1ccccc1 | 74.1 µM
O=C(OCC1CCCCC1)N1C(c2ccc(C(F)(F)F)cc2)=NN=C(c2ccc(C(F)(F)F)cc2)N1C(=O)OCC1CCCCC1 | > 100 µM
COC(=O)N1C(c2ccc(C(F)(F)F)cc2)=NN=C(c2ccc(C(F)(F)F)cc2)N1C(=O)OC | 2.08 µM
COC(=O)N1N=C(c2ccc(Cl)cc2)NN=C1c1ccc(Cl)cc1 | 49.4 µM
CCCCN1N=C(C)N(CCCC)N=C1C | 68.5 µM
CC(C)C(=O)N1N=C(c2ccccc2)NN=C1c1ccccc1 | 2.22 µM
CCC(=O)N1N=C(c2ccc(C(F)(F)F)cc2)NN=C1c1ccc(C(F)(F)F)cc1 | 9.56 µM
c1ccc(C2=NNC(c3ccccc3)=NN2)cc1 | 19.9 µM
FC(F)(F)c1ccc(C2=NN=C(c3ccc(C(F)(F)F)cc3)NN2)cc1 | 40 µM
Oc1ccc(Cl)cc1C1=NN=C(c2cc(Cl)ccc2O)NN1 | 13.2 µM
O=C(OCC1CCCCC1)N1C(c2ccccc2)=NN=C(c2ccccc2)N1C(=O)OCC1CCCCC1 | > 100 µM
CC(=O)N1N=C(c2ccc(C(F)(F)F)cc2)NN=C1c1ccc(C(F)(F)F)cc1 | 9.76 µM
Cc1ccc(S(=O)(=O)N2N=C(c3ccccc3)N(S(=O)(=O)c3ccc(C)cc3)N=C2c2ccccc2)cc1 | 85.8 µM
Clc1ccc(CC2=NNC(Cc3ccc(Cl)cc3)=NN2)cc1 | 51.8 µM
O=C(CCl)N1N=C(c2ccc(C(F)(F)F)cc2)NN=C1c1ccc(C(F)(F)F)cc1 | 8.53 µM
CC(=O)N1N=C(c2ccccc2)NN=C1c1ccccc1 | 44.7 µM
CCOC(=O)N1N=C(c2ccc(C(F)(F)F)cc2)NN=C1c1ccc(C(F)(F)F)cc1 | 0.575 µM
O=S(=O)(c1ccccc1)N1N=C(c2ccc(Cl)cc2)N(S(=O)(=O)c2ccccc2)N=C1c1ccc(Cl)cc1 | 51.9 µM

Second part, the molecule after the results:

IC50 | Compound
> 100 µM | CCCOC(=O)N1N=C(c2ccccc2)NN=C1c1ccccc1
57.3 µM | CC1=NN(C(=O)Nc2ccccc2O)C(C)=NN1C(=O)Nc1ccccc1O
1 µM | CCCC1=NN(C(=O)Nc2cccc(C)c2)C(CCC)=NN1C(=O)Nc1cccc(C)c1
48.3 µM | CCC(=O)N1N=C(c2ccccc2)NN=C1c1ccccc1
5.42 µM | CCCC1=NN(C(=O)Nc2ccccc2)C(CCC)=NN1C(=O)Nc1ccccc1
89 µM | COC(=O)N1N=C(c2cccc(Cl)c2)N(C(=O)OC)N=C1c1cccc(Cl)c1
5.55 µM | CC1=NN(C(=O)Nc2cccc(O)c2)C(C)=NN1C(=O)Nc1cccc(O)c1
39.5 µM | COC(=O)N1N=C(c2ccccc2)NN=C1c1ccccc1
76.7 µM | COC(=O)N1N=C(c2ccc(Cl)cc2)N(C(=O)OC)N=C1c1ccc(Cl)cc1
26.6 µM | CCOC(=O)N1C(c2ccccc2)=NN=C(c2ccccc2)N1C(=O)OCC
> 100 µM | COC(=O)N1C(c2ccccc2)=NN=C(c2ccccc2)N1C(=O)OC
0.639 µM | CCC1=NN(C(=O)Nc2cccc(C)c2)C(CC)=NN1C(=O)Nc1cccc(C)c1
> 100 µM | CCCOC(=O)N1C(c2ccc(C(F)(F)F)cc2)=NN=C(c2ccc(C(F)(F)F)cc2)N1C(=O)OCCC
79.3 µM | COC(=O)N1N=C(c2ccc(Cl)cc2Cl)N(C(=O)OC)N=C1c1ccc(Cl)cc1Cl
0.574 µM | CC1=NN(C(=O)Nc2cccc(C)c2)C(C)=NN1C(=O)Nc1cccc(C)c1
1.1 µM | CCCC1=NN(C(=O)Nc2cccc(Cl)c2)C(CCC)=NN1C(=O)Nc1cccc(Cl)c1
44.2 µM | CC(C)CCOC(=O)N1N=C(c2ccccc2)NN=C1c1ccccc1
3.66 µM | CC1=NN(C(=O)Nc2cc(C)cc(C)c2)C(C)=NN1C(=O)Nc1cc(C)cc(C)c1
> 100 µM | CCOC(=O)N1N=C(c2ccccc2)NN=C1c1ccccc1
> 100 µM | CCCOC(=O)N1C(c2ccccc2)=NN=C(c2ccccc2)N1C(=O)OCCC
0.035 µM | COc1cc(NC(=O)N2N=C(C)N(C(=O)Nc3cc(OC)cc(OC)c3)N=C2C)cc(OC)c1
51.1 µM | CCOC(=O)N1C(c2ccc(C(F)(F)F)cc2)=NN=C(c2ccc(C(F)(F)F)cc2)N1C(=O)OCC
40.8 µM | CCCCCOC(=O)N1N=C(c2ccccc2)NN=C1c1ccccc1
83.6 µM | COC(=O)N1N=C(c2cccc([N+](=O)[O-])c2)N(C(=O)OC)N=C1c1cccc([N+](=O)[O-])c1
44.9 µM | COc1ccccc1NC(=O)N1N=C(c2ccccc2)NN=C1c1ccccc1

Same assay, conditions: read-out: pIC50 (converted)

Compound | IC50
COc1ccc(C2=NN(S(=O)(=O)c3ccccc3)C(c3ccc(OC)cc3)=NN2S(=O)(=O)c2ccccc2)cc1 | 58.7 µM
CC(C)C(=O)N1N=C(c2ccc(C(F)(F)F)cc2)NN=C1c1ccc(C(F)(F)F)cc1 | 31.6 µM
Clc1ccc(C2=NN=C(c3ccc(Cl)cc3)NN2)cc1 | 51.8 µM
O=C(CCl)N1N=C(c2ccccc2)NN=C1c1ccccc1 | 1.85 µM
O=S(=O)(c1ccccc1)N1N=C(c2ccccc2)N(S(=O)(=O)c2ccccc2)N=C1c1ccccc1 | 74.1 µM
COC(=O)N1N=C(c2ccc(Cl)cc2)NN=C1c1ccc(Cl)cc1 | 49.4 µM
CCCCN1N=C(C)N(CCCC)N=C1C | 68.5 µM
CC(C)C(=O)N1N=C(c2ccccc2)NN=C1c1ccccc1 | 2.22 µM
CCC(=O)N1N=C(c2ccc(C(F)(F)F)cc2)NN=C1c1ccc(C(F)(F)F)cc1 | 9.55 µM
c1ccc(C2=NNC(c3ccccc3)=NN2)cc1 | 19.9 µM
FC(F)(F)c1ccc(C2=NN=C(c3ccc(C(F)(F)F)cc3)NN2)cc1 | 40 µM
Oc1ccc(Cl)cc1C1=NN=C(c2cc(Cl)ccc2O)NN1 | 13.2 µM
CC(=O)N1N=C(c2ccc(C(F)(F)F)cc2)NN=C1c1ccc(C(F)(F)F)cc1 | 9.75 µM
Cc1ccc(S(=O)(=O)N2N=C(c3ccccc3)N(S(=O)(=O)c3ccc(C)cc3)N=C2c2ccccc2)cc1 | 85.7 µM
Clc1ccc(CC2=NNC(Cc3ccc(Cl)cc3)=NN2)cc1 | 51.8 µM
O=C(CCl)N1N=C(c2ccc(C(F)(F)F)cc2)NN=C1c1ccc(C(F)(F)F)cc1 | 8.53 µM
CC(=O)N1N=C(c2ccccc2)NN=C1c1ccccc1 | 44.7 µM
CCOC(=O)N1N=C(c2ccc(C(F)(F)F)cc2)NN=C1c1ccc(C(F)(F)F)cc1 | 0.575 µM
O=S(=O)(c1ccccc1)N1N=C(c2ccc(Cl)cc2)N(S(=O)(=O)c2ccccc2)N=C1c1ccc(Cl)cc1 | 51.9 µM

Other lines, results leading:

IC50 | Compound
57.3 µM | CC1=NN(C(=O)Nc2ccccc2O)C(C)=NN1C(=O)Nc1ccccc1O
1 µM | CCCC1=NN(C(=O)Nc2cccc(C)c2)C(CCC)=NN1C(=O)Nc1cccc(C)c1
48.3 µM | CCC(=O)N1N=C(c2ccccc2)NN=C1c1ccccc1
5.42 µM | CCCC1=NN(C(=O)Nc2ccccc2)C(CCC)=NN1C(=O)Nc1ccccc1
88.9 µM | COC(=O)N1N=C(c2cccc(Cl)c2)N(C(=O)OC)N=C1c1cccc(Cl)c1
5.55 µM | CC1=NN(C(=O)Nc2cccc(O)c2)C(C)=NN1C(=O)Nc1cccc(O)c1
39.5 µM | COC(=O)N1N=C(c2ccccc2)NN=C1c1ccccc1
76.7 µM | COC(=O)N1N=C(c2ccc(Cl)cc2)N(C(=O)OC)N=C1c1ccc(Cl)cc1
0.64 µM | CCC1=NN(C(=O)Nc2cccc(C)c2)C(CC)=NN1C(=O)Nc1cccc(C)c1
79.3 µM | COC(=O)N1N=C(c2ccc(Cl)cc2Cl)N(C(=O)OC)N=C1c1ccc(Cl)cc1Cl
0.574 µM | CC1=NN(C(=O)Nc2cccc(C)c2)C(C)=NN1C(=O)Nc1cccc(C)c1
1.1 µM | CCCC1=NN(C(=O)Nc2cccc(Cl)c2)C(CCC)=NN1C(=O)Nc1cccc(Cl)c1
44.2 µM | CC(C)CCOC(=O)N1N=C(c2ccccc2)NN=C1c1ccccc1
3.66 µM | CC1=NN(C(=O)Nc2cc(C)cc(C)c2)C(C)=NN1C(=O)Nc1cc(C)cc(C)c1
0.035 µM | COc1cc(NC(=O)N2N=C(C)N(C(=O)Nc3cc(OC)cc(OC)c3)N=C2C)cc(OC)c1
40.8 µM | CCCCCOC(=O)N1N=C(c2ccccc2)NN=C1c1ccccc1
83.6 µM | COC(=O)N1N=C(c2cccc([N+](=O)[O-])c2)N(C(=O)OC)N=C1c1cccc([N+](=O)[O-])c1
44.9 µM | COc1ccccc1NC(=O)N1N=C(c2ccccc2)NN=C1c1ccccc1

Tested on: P388
Assay: Antiproliferative activity against mouse P388 cells by MTT assay
Type: functional, cell-based
Settings: not given

Compound | IC50
O=C(OCCCl)N1N=C(c2ccccc2)NN=C1c1ccccc1 | > 100 µM
O=C(Oc1ccccc1)N1C(c2ccc(C(F)(F)F)cc2)=NN=C(c2ccc(C(F)(F)F)cc2)N1C(=O)Oc1ccccc1 | 26.6 µM
O=C(OCC1CCCCC1)N1C(c2ccc(C(F)(F)F)cc2)=NN=C(c2ccc(C(F)(F)F)cc2)N1C(=O)OCC1CCCCC1 | > 100 µM
COC(=O)N1C(c2ccc(C(F)(F)F)cc2)=NN=C(c2ccc(C(F)(F)F)cc2)N1C(=O)OC | 30.4 µM
COC(=O)N1N=C(c2ccc(Cl)cc2)NN=C1c1ccc(Cl)cc1 | 34.9 µM
O=C(OCC1CCCCC1)N1C(c2ccccc2)=NN=C(c2ccccc2)N1C(=O)OCC1CCCCC1 | > 100 µM
CCOC(=O)N1N=C(c2ccc(C(F)(F)F)cc2)NN=C1c1ccc(C(F)(F)F)cc1 | 24.7 µM

Results, then the molecule that gave them:

IC50 | Compound
> 100 µM | CCCOC(=O)N1N=C(c2ccccc2)NN=C1c1ccccc1
> 100 µM | COC(=O)N1N=C(c2ccccc2)NN=C1c1ccccc1
11.2 µM | CCOC(=O)N1C(c2ccccc2)=NN=C(c2ccccc2)N1C(=O)OCC
> 100 µM | COC(=O)N1C(c2ccccc2)=NN=C(c2ccccc2)N1C(=O)OC
> 100 µM | CCCOC(=O)N1C(c2ccc(C(F)(F)F)cc2)=NN=C(c2ccc(C(F)(F)F)cc2)N1C(=O)OCCC
24.6 µM | CC(C)CCOC(=O)N1N=C(c2ccccc2)NN=C1c1ccccc1
> 100 µM | CCOC(=O)N1N=C(c2ccccc2)NN=C1c1ccccc1
11.7 µM | CCCOC(=O)N1C(c2ccccc2)=NN=C(c2ccccc2)N1C(=O)OCCC
> 100 µM | CCOC(=O)N1C(c2ccc(C(F)(F)F)cc2)=NN=C(c2ccc(C(F)(F)F)cc2)N1C(=O)OCC
11.8 µM | CCCCCOC(=O)N1N=C(c2ccccc2)NN=C1c1ccccc1
